Data on 2 compounds can be found in patent publication US12053465B2, “KCC2 expression enhancing compounds and uses thereof” (Whitehead Institute for Biomedical Research, priority 2017, dated 2024).

One test has as its system KCC2 expression. The experiment in a line: Western blot of KCC2 in organotypic mouse brain slices. It is filed as cell-based. The following applies: organotypic neonatal mouse brain slices, treated 7 days, vs DMSO, MeBIO or medium-only control.
The next test relates to human RTT neurons. The experiment in a line: mEPSC whole-cell patch-clamp recording in cultured human RTT neurons. It is filed as cell-based. The following applies: for mEPSC frequency enhancement: RTT neurons with KCC2 shRNA transfection; for frequency of mEPSCs / mEPSC amplitude: cultured human RTT neurons; for mEPSC amplitude: vs DMSO control. From the text:
Moreover, a reduction in the number or the strength of excitatory glutamatergic synapses in RTT neurons has been observed in postmortem RTT patient brain samples (30), mouse models of RTT (53), and human stem cell-derived RTT neurons (54). Electrophysiology recording was utilized to assess whether KEECs could rescue the deficits in EGABA and excitatory synaptic transmission of RTT neurons. […] We further investigated whether the beneficial effect of KEECs is a direct result of the increases in neuronal KCC2 gene expression. […] Deficits in a number of morphological measurements, including nuclei size and neurite complexity and branching, are hallmarks of RTT neurons (54-56). […] To validate the morphological measurements, electrophysiological measurements of the neuronal membrane capacitance (Cm), an indicator of neuronal cell size (57) that is reduced in RTT neurons, were conducted.
Functionally mature human neuron cultures were obtained by seeding human WT or isogenic RTT NPCs on a layer of primary mouse astrocyte culture as previously described (57). In the cultured WT human neurons, KCC2 expression reaches mature level between 2-3 months (7). We therefore treated the WT or RTT human neurons 8-12 weeks in culture, with compounds for a duration of two weeks before conducting whole-cell patch-clamp recording. The extracellular bath solution, that perfused the recording chamber, consists of (in mM): 120 NaCl, 30 glucose, 25 HEPES, 5 KCl, 2 CaCl2, 1 MgCl2. The pH was adjusted to 7.3 with NaOH. The high-chloride internal pipette solution consists of (in mM): 147 KCl, 5 Na-phosphocreatine, 2 EGTA, 10 HEPES, 4 MgATP, and 0.5 Na2GTP; the pH 7.3 was adjusted with KOH. To record mini EPSC, the membrane potential was held at −70 mV, and 0.5 μM of TTX and 50 μM Picrotoxin were applied with bath solution to block action potential and GABAergic synaptic transmission.
To evoke GABA response, a pipette filled with 100 μM GABA solution was positioned 5-10 μm away from the neuronal cell body. Air pulses at the pressure of 10 p.s.i. and duration of 100 ms were generated with a Picrospritzer (Parker Instrumentation) to puff GABA solution onto neuronal cell body. Neuronal response to GABA puffs were recorded at different membrane holding potentials from −90 mV to +30 mV, and the EGABA values were calculated with linear regression. Electrophysiological signals were recorded with Multiclamp 700A patch-clamp amplifier and data were collected with Clamp 9 software (Molecular Devices, Palo Alto, CA), sampled at 10 kHz and filtered at 1 KHz. Off-line data analyses of mEPSC synaptic events were performed with MiniAnalysis software (Synaptosoft, Decator, GA). All experiments were performed at room temperature. A sample size of 5-8 neurons was used for EGABA measurements, while a sample size of 14-19 neurons was used for mEPSC measurements. All data were presented as mean±SEM. ANOVA test followed by the Bonferroni correction were used for statistical analysis. The Kolmogorov-Smirnov test was employed to compare the cumulative distribution between two datasets.

The test system of a further test is immature mouse neurons. Kind of test: Resting membrane potential and membrane capacitance of DIV6 immature mouse neurons. It is filed as cell-based.
Test [1] concerns KCC2 expression (KCC2-2A-luciferase reporter). The experiment in a line: KCC2-2A-luciferase reporter compound screening with RTT KCC2 reporter neurons. It is filed as cell-based, human. The settings on record: for B Score: MECP2-null RTT human KCC2 reporter neurons, LINCS, SMART, ICCB libraries, Luc/CTG normalized to in-plate DMSO, hit = B score >3; for KCC2 reporter activity in RTT neurons: RTT KCC2-2A-luciferase reporter neurons vs in-plate DMSO. In a few lines: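 MECP2-null RTT human neurons carrying a KCC2-2A-luciferase reporter, differentiated 4 weeks, were treated with library compounds at 10 μM for 1–2 weeks at 37 °C. Lysate luciferase was normalized to CellTiter-Glo ATP per well and expressed as fold change over in-plate DMSO. Hits were called at B score >3.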
(A reporter such as luciferase makes a cellular process visible.)

On to `O=C1Nc2cc(Br)ccc2/C1=C1/Nc2ccccc2/C1=N\O` [BIO, (2Z,3E)-6′-bromo-3-(hydroxyimino)-[2,3′-biindolinylidene]-2′-one], for which the KCC2 protein level entry in the test on KCC2 expression is “enhanced KCC2 expression levels”. Also, in the test with human RTT neurons, the mEPSC frequency enhancement entry is given as “abolished the effect”, the “frequency of mEPSCs” value is given as “significantly increased the frequency of mEPSCs to levels equivalent to WT control” and the mEPSC amplitude result was “significantly increased mEPSC amplitude”. The resting membrane potential result in the test with immature mouse neurons was “does not significantly alter the resting membrane potential”. In test [1], the “B Score” value worked out at 3.42 and the “KCC2 reporter activity in RTT neurons” value is “significant increase of KCC2 reporter activity”.
As to `O=C(c1ccc(/C=C/c2n[nH]c3ccccc23)cc1)N1CCNCC1` [KW-2449, (E)-(4-(2-(1H-indazol-3-yl)vinyl)phenyl)(piperazin-1-yl)methanone], the KCC2 protein level entry in the test with KCC2 expression is “enhanced KCC2 expression levels”. Moreover, in the test with human RTT neurons, the mEPSC frequency enhancement entry is recorded as “abolished the effect”, the “frequency of mEPSCs” value is recorded as “significantly increased the frequency of mEPSCs to levels equivalent to WT control” and the mEPSC amplitude result is reported as “significantly increased mEPSC amplitude”. For the same compound, the resting membrane potential result in the test on immature mouse neurons is listed as “does not significantly alter the resting membrane potential”. Besides, the membrane capacitance result in the test with immature mouse neurons (vs DMSO control) is recorded as “significantly increase the membrane capacitance”. Moreover, in test [1], the “B Score” value is on record as 5.45 and the “KCC2 reporter activity in RTT neurons” value is recorded as “significant increase of KCC2 reporter activity”.
